In patent US9241891B2, “Personal care compositions comprising self-assembling peptides” (The Procter & Gamble Company, priority 2012, dated 2016):
Like-named read-outs stand apart in the source and are kept apart here.

Test system: CLAUDIN 1
Conditions: human keratinocytes
Experimental: Cultures of human keratinocytes are treated with two concentrations of solutions, of the hexadecapeptide PuraMatrix™ (supplied by BD Science). The lower concentration, which is below the estimated critical aggregation concentration (CAC) at which the RADA-16I (SEQ ID NO:1) monomer self-assembles, while the higher concentration is above the CAC.

RADARADARADARADA [PuraMatrix ™] was tested, and the “CLDN1 LEVEL” value (High Concentration, above the CAC) was 1.39, the “CLDN1 LEVEL” value (Low Concentration, below the estimated critical aggregation concentration (CAC)) was 1.09 and the “CLAUDIN 1 regulation (in words)” value (higher concentration, above the estimated critical aggregation concentration) was “significantly upregulates”.
